From US9566341B1, “Compounds including Cox inhibitor moiety and enhanced delivery of active drugs using same” (University of Kentucky Research Foundation, priority 2011, dated 2017)
Where “and” joins values, the source holds several entries; their conditions need not be identical. Identical values can stand only once. Counter-ions that a name gives are not always drawn.

Assays:
[1] = In vitro diffusion study across microneedle-treated full thickness Yucatan miniature pig skin; format: in vitro ADME; conditions: for naltrexol flux: 10% PG containing saturated donor formulation; for flux enhancement of salt form over free base form: NTX flux, p<0.005; for flux of naltrexone from the hydrochloride salt form: donor in 0.3M acetate buffer pH 5.0, MN treated skin, n=4
Method: For all in vitro experiments female Yucatan minipig skin (6 months old) were used. Skin sections were obtained by removing the subcutaneous fatty tissue by scalpel dissection, and were stored at −20° C. A PermeGear flow-through (In-Line, Riegelsville, Pa., USA) diffusion cell system was used for the skin permeation studies.
The skin was pierced 20 times with an array containing 5 MN (i.e., to make a total of 100 individual and non-over lapping piercings) before mounting the skin in the diffusion cell for the treatment group. The insertion of MN into skin was carried out manually by applying gentle finger pressure followed by instantaneous removal. MN's were distributed evenly within the 0.95 cm^2 area of skin and could easily be visualized after each 5 MN insertion, as to prevent reapplication in the same area. Single MN array of 5 were used simply out of ease for the experimental procedure. If any damage to an MN section was observed the section was replaced. […] Untreated skin samples were simply placed in the diffusion cells. Diffusion cells were kept at 32° C. using a circulating water bath. Data were collected using skin from a single pig 3-4 cells for the MN treated formulations.
The physiological receiver solution was water adjusted to pH 7.4 containing 20% ethanol, and the flow rate was adjusted to 1.5 ml/h. Each cell was charged with 0.25 ml of the donor in the donor compartment of the chamber. The diffusion cells were covered with a stopper to prevent evaporation. Samples were collected from the receiver compartment in six-hour increments over 48 h or for the length of the treatment. All samples were stored at 4° C. until analyzed by HPLC.
The in vitro permeation experiments were carried out to determine the transdermal flux of the parent drugs and the codrug, permeation coefficients as well as the concentration of the drug molecules in the skin at the end of the study. For all in vitro experiments Yucatan miniature pig (YP) skin was used. Full thickness skin was obtained by removing the subcutaneous fatty tissue by scalpel dissection, and stored at −20° C. A PermeGear flow-through (In-Line, Riegelsville, Pa., USA) diffusion cell system was used for the skin permeation studies. […] The skin was pierced 20 times with a 5 MN array (making 100 individual and non-over lapping piercings) before mounting the skin in the diffusion cell. MN pores were distributed evenly within the 0.95 cm^2 area of skin. Untreated skin samples were mounted directly onto the diffusion cells. The setup was maintained at 32° C. using a circulating water bath. Data collected using a minimum of 3-4 cells per treatment group. The receiver solution was water alkalified to pH 7.4 containing 20% ethanol at 37° C. Gentamycin sulfate (50 mg/L) was added to the receiver for 7 day studies as an antibacterial agent. The receiver flow rate was adjusted to 1.5 ml/h to maintain skin conditions. Each cell was charged with 0.25 ml of the donor and the diffusion cells were covered with a stopper to prevent evaporation of formulation. Samples were collected at regular increments over 48 hours or for the length of the treatment. Drug was concentrated 10 fold by evaporating 1 ml of the collected sample under nitrogen and reconstituting in 100 μl of ACN for quantification. All samples were stored at 4° C. until analyzed by HPLC. The skin was removed at the end of the study and the treatment area was diced into small pieces using a scalpel after removing all excess drugs from top of the skin. Drug was extracted out by immersing the skin pieces in ACN overnight in a shaker water bath at 32° C. Samples were injected into the HPLC after appropriate dilution for quantitative analysis. The donor was also removed and quantified at the end of the study by direct injection onto HPLC after suitable dilution using ACN. All data was analyzed using Fick's first law of diffusion. […]

[2] = Chemical stability in 0.3M acetate buffer pH 5.0 at 32° C.; format: physicochemical
From the text: The chemical stability of the prodrugs to hydrolysis and solvolysis at the appropriate temperatures will be determined by measuring concentrations over time in the buffers and solvents used in the solubility and diffusion studies. Chemical degradation rate constants will be important in distinguishing enzymatic degradation from non-enzymatic degradation. Codrug enzymatic metabolism rate constants can also be determined in skin homogenates, to ascertain if the values are useful in the QSPR multiple regression analysis. The kinetics of codrug enzymatic degradation in skin homogenates will be done using abdominal plastic surgery samples. Enzymatic reaction rates will be determined at several different codrug concentrations. The skin is homogenized (Polytron tissue homogenizer and ground glass homogenizer fitted with a glass pestle) in HEPES-buffered Hanks' balanced salt solution and the supernatant is obtained. The enzymatic hydrolysis rates are determined in the homogenate at 37° C. The codrug and its metabolites will be obtained by solid-phase extraction, or another appropriate extraction method. Naltrexone and any other metabolite formed will be assayed by HPLC and expressed as moles of metabolite per minute per milligram of protein. Protein concentrations in the supernatant will be measured by the Bradford method. Controls containing only codrug and HEPES-buffered Hanks' balanced salt solution at 37° C. will also be monitored to determine non-enzymatic hydrolysis.
Chemical and enzymatic stability was determined for the codrugs. For chemical stability studies, the codrug was put in prewarmed 0.3M acetate buffer pH 5.0 after solubilization in <5% ACN, if required, at 32° C. in an incubator. Samples were withdrawn at regular intervals and injected into the HPLC after appropriate dilutions. Enzymatic stability studies are important for estimation of conversion of codrugs in the plasma. […] All stability data was analyzed using pseudo first order kinetics. […]

[3] = tested on: hairless guinea pig micropores; test: In vivo micropore visualization by gentian violet/India ink staining after MN treatment; conditions: for time the pores stay open after MN treatment: codrug gel under occlusion, patch changed at 3.5 days
From the text: The patches were removed at predetermined time points and the site was cleaned with sterile gauze. Gentian violet/India ink was applied as the dyeing agent at the MN treated sites and allowed to dry before excess dye was removed with ethanol and gauze. Both the dyes stain the viable epidermis but not the intact SC. […] The donor was removed from the top of the skin at the end of the study and analyzed by direct injection onto HPLC after suitable dilution using ACN.
All animal experiments were approved by the University of Kentucky IACUC. A proof of concept in vivo experiment was carried out. 4% w/w gels were prepared with the hydrochloride salt form of the codrug. Gels were formulated by dissolving 4% codrug salt in PG: buffer at pH 5.0=10:90 and 3.0% hydroxyethylcellulose (HEC) polymer (required to have a gel formulation). Polymer was dissolved over a 30 minute period to obtain a homogenous gel. The solution was stirred until a viscous gel resulted and then left at room temperature for 1½ to 2 hours to remove bubbles and ensure complete polymerization. The gel was saturated with excess solid and therefore was cloudy. MN treated animals were first cleaned topically with isopropyl alcohol, and 50 MN array was applied twice mutually perpendicular to each other to give a total of 100 pores at each site. 0.3 mL gel doses were applied to the dorsal region of the HGP. After application of the gel the skin was occluded with the occlusive patch and biocclusive tape was applied to prevent evaporation of the formulation. The patch was changed with new formulation at 3.5 days such that more than 50% intact codrug was always present in formulation. […] The patches were removed to obtain data at successive 24 h time intervals.
The patches were removed at predetermined time points and the site was cleaned with sterile gauze. Gentian violet/India ink was applied as the dyeing agent at the MN treated sites and allowed to dry before excess dye was removed with ethanol and gauze. Both the dyes stain the viable epidermis but not the intact SC.

[4] = Pharmacokinetic study with codrug HCl salt gel patches after MN treatment; format: in vivo, hairless guinea pig
Method: Microneedle treatment at each patch site contained 100 micropores created by a 1 cm^2 50 needle stainless steel array rotated 90° and inserted twice. […] Plasma samples were obtained from a jugular catheter over seven days and analyzed for drug concentration by LC/MS (Methods).
(§1) Hairless IAF guinea pigs (Charles River) weighing 350-650 g were used for these studies. All animal studies were in accordance with the institutional guidelines and approved by the University of Kentucky IACUC. Surgical procedure was performed to canulate the jugular vein. Blood samples (0.3 mL) were drawn from the jugular vein at regular time intervals for the time studied. MN treated animals were first cleaned topically with isopropyl alcohol, and two 50 MN arrays were then manually applied to each dose site. For MN treated GPs, four 0.3 mL gel doses were applied to the dorsal region of the hairless guinea pigs at 4 sites to obtain steady state plasma levels. […] The blood samples were immediately centrifuged at 10,000×g for 3 min; plasma was separated and stored at −70° C. until analysis.
as §1, with “70 g C” for “−70° C.”

[5] = Concentration of saturated donor solution; format: physicochemical; conditions: hydrochloride salt; 0.3M acetate buffer at pH 5.0
Method: Solubility studies are carried out by equilibrating large excesses of each drug with the solvent studied. The experiments will be done at skin surface temperature (32° C.). To hasten the attainment of equilibrium, each slurry will be continuously shaken or stirred. Samples will be taken, filtered with an appropriate filter for the solvent, measured with respect to volume, and either assayed directly by HPLC or evaporated to dryness and reconstituted for assay. Binding of the compounds to the filter will be checked to eliminate the possibility of drug adsorption on the filter and/or filter casing. All toxic solvents and other chemicals will be handled with caution, and fume hoods will be used when appropriate.
In vitro experiments. The goal of the first set of in vitro experiments was to estimate flux and skin concentration of the base form of the codrug.

[6] = Micromedex 1.0, as fraction; cited from earlier work
[7] = listed as Compound 2U hydrochloride salt

## O=C(Cc1ccccc1Nc1c(Cl)cccc1Cl)OC1CCC2(O)C3Cc4ccc(O)c5c4C2(CCN3CC2CC2)C1O5 (stereo not drawn) [Compound 2B]
[1]
  naltrexol flux: approximately 0.29±0.09 nmol/cm^2/h
[2]
  Chemical stability: 56.3 ± 9.5 days

## O=C(Cc1ccccc1Nc1c(Cl)cccc1Cl)O[C@@H]1CC[C@@]2(O)[C@H]3Cc4ccc(O)c5c4[C@@]2(CCN3CC2CC2)C1O5 (stereo partly drawn) [Compound 2B]
[2]; buffer pH 5.0, 32° C.
  half-life: ~56.3 days

## O=C1CC[C@@]2(O)[C@H]3Cc4ccc(O)c5c4[C@@]2(CCN3CC2CC2)[C@H]1O5 [NTX HCl, Naltrexone Hydrochloride, reference compound]
[3]; MN followed by NTX HCl gel under occlusion
  pore visualization at day 4 (96 h): cannot be visualized

## Oc1ccc2c3c1O[C@H]1[C@H](O)CC[C@@]4(O)[C@@H](C2)N(CC2CC2)CC[C@]314 [NTXOL, 6-β-Naltrexol, reference compound]
[1]
  naltrexol flux: 3.07±0.27 nmol/cm^2/h

## Cl.O=C(Cc1ccccc1Nc1c(Cl)cccc1Cl)Oc1ccc2c3c1O[C@H]1C(=O)CC[C@@]4(O)[C@@H](C2)N(CC2CC2)CC[C@]314 [codrug salt]
[4]; 4 patches, 400 MN treatments
  Css estimated from Jss*A=Css*Cl: around 1 ng/ml
[4]; LC/MS, over seven days
  intact codrug in plasma samples: not detected
[4]; days 1, 4, 5, 6, and 7
  micropore staining with India ink: Significant micropore staining
[4]; one guinea pig of four
  time at which pores closed: 6 days
[4]; salt form, 10% PG formulation
  flux of NTX from the codrug in hairless guinea pig model: not high enough to quantify
[4]; three out of the four guinea pigs, four patches, single MN pretreatment
  duration of significant NTX plasma levels: 7 days
[1]
  flux enhancement of salt form over free base form: 13 fold
  flux of naltrexone from the hydrochloride salt form: 5.42±1.5 nmol/(cm^2/h) and 5.5 nmol/(cm^2/h)
[1]; [7]
  flux enhancement of salt form over free base form: about 13 fold
  flux of naltrexone from the hydrochloride salt form: 5.42±1.5 nmol/(cm^2/h)
[1]; salt form, 25% and 50% PG, saturated donor
  flux at higher concentrations of PG: flux decreased significantly
[1]; salt form, saturated donor, one way ANOVA
  flux of 10% PG containing formulation versus aqueous formulation: no significant difference in flux
[3]; [7]
  time the pores stay open after MN treatment: ≤ 7 days
[3]; listed as HCl salt form of the compound
  time the pores stay open after MN treatment: ≤ 7 days
[5]
  concentration of donor solution: 39300 µg/mL

## O=C(O)Cc1ccccc1Nc1c(Cl)cccc1Cl [diclofenac, Diclofenac]
[6]
  oral bioavailability: 0.55
